Source: US20230085307A1, “PYRIDAZINONE COMPOUND AND HERBICIDE” (NISSAN CHEMICAL CORPORATION, priority 2019, published 2023)

Key:
Italian ryegrass = experiment: Test Example 5: herbicidal effect by foliage application, plastic box (Table 20, symbol K); assay type: in vivo, Italian ryegrass (Lolium multiflorum); conditions: foliage application, AAH 320 g/ha, evaluated three weeks after application
Outline: (§1)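 Foliar spray test: emulsion formulation diluted in water to a set application rate, sprayed onto 14-day-old plants raised in diluvial soil at 25° C to 30° C under glass. Both herbicidal effect and crop effect rated visually three weeks later.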

redroot pigweed [1] = experiment: Test Example 4: herbicidal effect by soil treatment (Table 19, symbol N); assay type: in vivo, redroot pigweed (Amaranthus retroflexus); conditions: amount of applied herbicide 320 g/ha
Outline: (§2)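 Step 1: sow seeds in sterilized diluvial soil, cover ~1.5 cm. Step 2: spray diluted emulsion onto soil surface at predetermined rate. Step 3: greenhouse, 25–30° C, three weeks. Step 4: grade effect on each plant by earlier criteria.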

barnyard grass [2] = experiment: Test Example 3: herbicidal effect by foliage application, Wagner pot (Table 18, symbol H); assay type: in vivo, barnyard grass (Echinochloa crus-galli); conditions: amount of applied herbicide 320 g/ha
Outline: (§3)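 Plants were sown in alluvial soil held under 0.1–0.5 cm standing water and grown 14 days in a greenhouse at 25–30 °C. An emulsifiable formulation, water-diluted to the set dose, was then sprayed onto the foliage, and effects were scored three weeks later using previously defined criteria.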

green foxtail [3] = experiment: Test Example 5: herbicidal effect by foliage application, plastic box (Table 20, symbol G); assay type: in vivo, green foxtail (Setaria viridis); conditions: foliage application, AAH 320 g/ha, evaluated three weeks after application
Outline: as §1

blackgrass = experiment: Test Example 5: herbicidal effect by foliage application, plastic box (Table 20, symbol J); assay type: in vivo, blackgrass (Alopecurus myosuroides); conditions: foliage application, AAH 320 g/ha, evaluated three weeks after application
Outline: as §1

late watergrass = experiment: Test Example 1: herbicidal activity, application before weed generation under submerged conditions (Table 16, symbol A); assay type: in vivo, late watergrass (Echinochloa oryzicola); conditions: 320 g/ha applied herbicide
Outline: (§4)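 Submerged Wagner pots (alluvial soil, 4 cm water) sown with weed seeds and planted with 2.5-leaf rice seedlings; emulsifiable concentrate diluted in water applied to water surface on sowing day. Held in greenhouse at 25-30 °C; injury scored 0-5 by herbicidal rate after three weeks.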

Japanese bulrush = experiment: Test Example 2: herbicidal activity, application during weed generation under submerged conditions (Table 17, symbol B); assay type: in vivo, Japanese bulrush (Schoenoplectus juncoides); conditions: AAH 320 g/ha; application during weed generation, submerged conditions
Outline: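 Alluvial soil in Wagner pots was flooded to 4 cm depth and sown with the three weeds together; pots were kept in a greenhouse at 25° C. to 30° C. At the one to two leaf stage, an emulsion formulation diluted in water to a set rate went onto the water surface; scored three weeks later.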

chickweed [4] = experiment: Test Example 5: herbicidal effect by foliage application, plastic box (Table 20, symbol P); assay type: in vivo, common chickweed (Stellaria media); conditions: foliage application, AAH 320 g/ha, evaluated three weeks after application
Outline: as §1

redroot pigweed [5] = experiment: Test Example 5: herbicidal effect by foliage application, plastic box (Table 20, symbol N); assay type: in vivo, redroot pigweed (Amaranthus retroflexus); conditions: foliage application, AAH 320 g/ha, evaluated three weeks after application
Outline: as §1

velvetleaf = experiment: Test Example 4: herbicidal effect by soil treatment (Table 19, symbol M); assay type: in vivo, velvetleaf (Abutilon theophrasti); conditions: amount of applied herbicide 320 g/ha
Outline: as §2

oval-leafed pondweed = experiment: Test Example 1: herbicidal activity, application before weed generation under submerged conditions (Table 16, symbol C); assay type: in vivo, oval-leafed pondweed (Monochoria vaginalis); conditions: 320 g/ha applied herbicide
Outline: as §4

rice flat sedge = experiment: Test Example 3: herbicidal effect by foliage application, Wagner pot (Table 18, symbol E); assay type: in vivo, rice flat sedge (Cyperus iria); conditions: amount of applied herbicide 320 g/ha
Outline: as §3

barnyard grass [6] = experiment: Test Example 4: herbicidal effect by soil treatment (Table 19, symbol H); assay type: in vivo, barnyard grass (Echinochloa crus-galli); conditions: amount of applied herbicide 320 g/ha
Outline: as §2

green foxtail [7] = experiment: Test Example 4: herbicidal effect by soil treatment (Table 19, symbol G); assay type: in vivo, green foxtail (Setaria viridis); conditions: amount of applied herbicide 320 g/ha
Outline: as §2

chickweed [8] = experiment: Test Example 4: herbicidal effect by soil treatment (Table 19, symbol P); assay type: in vivo, common chickweed (Stellaria media); conditions: amount of applied herbicide 320 g/ha
Outline: as §2

southern crabgrass = experiment: Test Example 5: herbicidal effect by foliage application, plastic box (Table 20, symbol F); assay type: in vivo, southern crabgrass (Digitaria ciliaris); conditions: foliage application, AAH 320 g/ha, evaluated three weeks after application
Outline: as §1

| SMILES | K: Italian ryegrass, herbicidal effect (criteria 0-5) (Italian ryegrass) | herbicidal effect on N: redroot pigweed (redroot pigweed [1]) | herbicidal effect on H: barnyard grass (barnyard grass [2]) | G: green foxtail, herbicidal effect (criteria 0-5) (green foxtail [3]) | J: blackgrass, herbicidal effect (criteria 0-5) (blackgrass) | Herbicidal effect on A: late watergrass (grade 0-5) (late watergrass) | herbicidal effect rating, B: Japanese bulrush (Japanese bulrush) | P: chickweed, herbicidal effect (criteria 0-5) (chickweed [4]) | N: redroot pigweed, herbicidal effect (criteria 0-5) (redroot pigweed [5]) | herbicidal effect on M: velvetleaf (velvetleaf) | Herbicidal effect on C: oval-leafed pondweed (grade 0-5) (oval-leafed pondweed) | herbicidal effect on E: rice flat sedge (rice flat sedge) | herbicidal effect on H: barnyard grass (barnyard grass [6]) | herbicidal effect on G: green foxtail (green foxtail [7]) | herbicidal effect on P: chickweed (chickweed [8]) | F: southern crabgrass, herbicidal effect (criteria 0-5) (southern crabgrass) |
| --- | --- | --- | --- | --- | --- | --- | --- | --- | --- | --- | --- | --- | --- | --- | --- | --- |
| CCCC(=O)Oc1c(C)nn(C)c(=O)c1-c1c(-c2ccc(SC(C)C)cc2)sc2ccc(F)cc12 [2-253] | 3 (Herbicidal rate of 40% or more and less than 70%) | 5 (Herbicidal rate of 90% or more (almost completely withered)) | 5 (Herbicidal rate of 90% or more (almost completely withered)) | 5 (Herbicidal rate of 90% or more (almost completely withered)) | 4 (Herbicidal rate of 70% or more and less than 90%) | 5 (Herbicidal rate of 90% or more (almost completely withered)) | 3 (Herbicidal rate of 40% or more and less than 70%) | 5 (Herbicidal rate of 90% or more (almost completely withered)) | 5 (Herbicidal rate of 90% or more (almost completely withered)) | 1 (Herbicidal rate of 5% or more and less than 20%) | 0 (Herbicidal rate of 5% or less (almost no effect)) | 4 (Herbicidal rate of 70% or more and less than 90%) | 1 (Herbicidal rate of 5% or more and less than 20%) | 0 (Herbicidal rate of 5% or less (almost no effect)) | 3 (Herbicidal rate of 40% or more and less than 70%) | 4 (Herbicidal rate of 70% or more and less than 90%) |
| C#CCSCc1ccc(-c2sc3ccc(F)cc3c2-c2c(O)c(C)nn(C)c2=O)cc1 [2-325] | 4 (Herbicidal rate of 70% or more and less than 90%) | 4 (Herbicidal rate of 70% or more and less than 90%) | 5 (Herbicidal rate of 90% or more (almost completely withered)) | 5 (Herbicidal rate of 90% or more (almost completely withered)) | 4 (Herbicidal rate of 70% or more and less than 90%) | 3 (Herbicidal rate of 40% or more and less than 70%) | 2 (Herbicidal rate of 20% or more and less than 40%) | 5 (Herbicidal rate of 90% or more (almost completely withered)) | 5 (Herbicidal rate of 90% or more (almost completely withered)) | 0 (Herbicidal rate of 5% or less (almost no effect)) | 0 (Herbicidal rate of 5% or less (almost no effect)) | 5 (Herbicidal rate of 90% or more (almost completely withered)) | 3 (Herbicidal rate of 40% or more and less than 70%) | 2 (Herbicidal rate of 20% or more and less than 40%) | 0 (Herbicidal rate of 5% or less (almost no effect)) | 5 (Herbicidal rate of 90% or more (almost completely withered)) |
| COc1cccc(S(=O)(=O)Oc2c(C)nn(C)c(=O)c2-c2c(-c3ccc(OC(F)F)cc3)sc3ccc(F)cc23)c1 [2-313] | 5 (Herbicidal rate of 90% or more (almost completely withered)) | 5 (Herbicidal rate of 90% or more (almost completely withered)) | 5 (Herbicidal rate of 90% or more (almost completely withered)) | 5 (Herbicidal rate of 90% or more (almost completely withered)) | 4 (Herbicidal rate of 70% or more and less than 90%) | 2 (Herbicidal rate of 20% or more and less than 40%) | 3 (Herbicidal rate of 40% or more and less than 70%) | 5 (Herbicidal rate of 90% or more (almost completely withered)) | 5 (Herbicidal rate of 90% or more (almost completely withered)) | 4 (Herbicidal rate of 70% or more and less than 90%) | 0 (Herbicidal rate of 5% or less (almost no effect)) | 5 (Herbicidal rate of 90% or more (almost completely withered)) | 1 (Herbicidal rate of 5% or more and less than 20%) | 2 (Herbicidal rate of 20% or more and less than 40%) | 5 (Herbicidal rate of 90% or more (almost completely withered)) | 4 (Herbicidal rate of 70% or more and less than 90%) |
| Cc1nn(C)c(=O)c(-c2c(-c3ccc(OC(F)F)cc3)sc3ccc(F)cc23)c1OC(=O)COc1ccccc1 [2-284] | 5 (Herbicidal rate of 90% or more (almost completely withered)) | 5 (Herbicidal rate of 90% or more (almost completely withered)) | 5 (Herbicidal rate of 90% or more (almost completely withered)) | 5 (Herbicidal rate of 90% or more (almost completely withered)) | 5 (Herbicidal rate of 90% or more (almost completely withered)) | 3 (Herbicidal rate of 40% or more and less than 70%) | 3 (Herbicidal rate of 40% or more and less than 70%) | 5 (Herbicidal rate of 90% or more (almost completely withered)) | 5 (Herbicidal rate of 90% or more (almost completely withered)) | 5 (Herbicidal rate of 90% or more (almost completely withered)) | 3 (Herbicidal rate of 40% or more and less than 70%) | 5 (Herbicidal rate of 90% or more (almost completely withered)) | 5 (Herbicidal rate of 90% or more (almost completely withered)) | 5 (Herbicidal rate of 90% or more (almost completely withered)) | 4 (Herbicidal rate of 70% or more and less than 90%) | 3 (Herbicidal rate of 40% or more and less than 70%) |
